The subject of one test is wild-type BW25113 strain. As to the kind of experiment: Cross streak method, growth inhibition (antibacterial) width. The format is cell-based, Escherichia coli. The settings on record: L agar, overnight at 30° C. The method, then: (§1) Influence of a tolC gene deficiency on N-acetylserine (NAS) and O-acetylserine (OAS) sensitivity was investigated in a strain which is deficient in a part of or the entire tolC gene by the cross streak method. In order to compare growth inhibition by NAS (2 M), OAS (2 M), L-cysteine (2 M) and L-serine (1 M), the tolC-deficient JW5503 strain, and the wild-type BW25113 strain used as a control, were cultured overnight in the L liquid medium, and each culture medium was streaked on the L agar medium with a platinum loop. A strip-shaped filter paper onto which each of the aforementioned reagents was dropped, was placed on each of the strains in a direction perpendicular to the streaking direction, and the strains were cultured overnight at 30° C. After the culture, lengths of the filter paper on which growth of the bacteria was inhibited (antibacterial widths) were measured, and the antibacterial activities of the regents on both the strains were compared.

In test [1] the test system is tolC-deficient JW5503 strain (BW25113ΔtolC). Described as above. Type of test: cell-based, Escherichia coli. The settings on record: L agar, overnight at 30° C. As for the experimental part: as §1
The test system of test [2] is tolC gene-deficient strain JW5503/pCA24. Put plainly: Growth test of serially diluted cell suspensions spotted on L agar medium containing cysteine. Type of test: cell-based, Escherichia coli. The settings on record: L agar with 10, 15, 20 mM cysteine, 37° C. overnight; FIG. 1. An excerpt:
Since a strain which is deficient in a part of or the entire tolC gene was obtained by the screening of the Keio Collection, growth of the gene-deficient strain was observed on the agar medium containing cysteine of different concentrations in order to analyze the sensitivity of that strain to cysteine in more detail. The strain which is deficient in a part of or the entire tolC gene used here was the JW5503 strain (Keio collection), and the parent strain thereof was the BW25113 strain (Andreas Haldimann, A. and Wanner, B. L., J. Bacteriol., 2001 November; 183 (21):6384-6393). The plasmid carrying the tolC gene for a complementation experiment was pTolC (ASKA clone, Kitagawa, M, et al., 2005; DNA Res., 12:291-299), and the vector used as the base thereof was pCA24 (vector for ASKA clone, Kitagawa, M, et al., 2005, DNA Res., 12:291-299).
The bacteria containing each of the plasmids were each inoculated into 5 ml of L medium (10 g/L of Bacto trypton, 5 g/L of Bacto yeast extract, 5 g/L of NaCl), and cultured overnight at 37° C. […]

A further test deals with wild-type strains. As to the kind of experiment: Growth on LB agar media containing cysteine (Keio collection screening). The format is cell-based, E. coli BW25113. Particulars: overnight at 37° C. The method, then: The 3,985 clones of the Keio collection were cultured at 37° C. for 15 hours in 0.5 ml of LB liquid medium. This culture medium was stamped on LB agar media containing cysteine at different concentrations (0, 15, 20, 25 mM), and culture was performed overnight at 37° C. Clones that were sensitive to cysteine at a concentration not higher than the growth inhibition concentration of cysteine for wild-type strains (20 mM) were visually selected. […] A strain which is deficient in a part of or the entire tolC gene was obtained as a clone showing particularly strong and distinctive cysteine sensitivity among the above candidates. TolC is an example of a protein called a porin, which localizes in the outer membrane and forms a channel for substance transportation via the outer membrane. Although the presence of many other porins was known for E. coli, TolC was the only porin selected by this screening, among the several candidates considered showing strong cysteine sensitivity.

The mark [3] stands for this setting: reagent 2 M on filter paper strip.
The mark [4] stands for this setting: reagent 1 M on filter paper strip.

Where only a bound is given, the exact number is not on record here.

Four compounds from patent publication US8278075B2, “L-cysteine-producing bacterium and a method for producing L-cysteine” (Ajinomoto Co., Inc., priority 2008, dated 2012) can be followed below.

Regarding `CC(=O)N[C@@H](CO)C(=O)O` [N-Acetylserine], the Growth inhibition width is less than 2 mm in the test with wild-type BW25113 strain (setting [3]) and 10 mm in test [1] (setting [3]).
Turning to `N[C@@H](CO)C(=O)O` [L-Serine], the Growth inhibition width (in the test with wild-type BW25113 strain (setting [4]); in test [1] (setting [4])) was 0 mm in each case.
Take `CC(=O)OC[C@H](N)C(=O)O` [O-Acetylserine]: the Growth inhibition width is less than 1 mm in the test with wild-type BW25113 strain (setting [3]) and 4 mm in test [1] (setting [3]).
In the case of `N[C@@H](CS)C(=O)O` [L-Cysteine], the Growth inhibition width was less than 1 mm with wild-type BW25113 strain (setting [3]) and 5 mm in test [1] (setting [3]). The “cysteine sensitivity of growth compared with the control strain BW25113/pCA24” value in test [2] is recorded as “marked cysteine sensitivity”. In addition, the “growth inhibition concentration of cysteine for wild-type strains” value in the test with wild-type strains was determined as 20 mM.
